A short description of this data set: Flavor Solubilization (mint flavor oils). The data set is classed as physicochemical. Conditions: premix at the solubilization ratio. As for the experimental part: The ability of the rhamnolipid mixture to solubilize an oil-based flavorant, such as a mint oil flavorant, was tested. The rhamnolipid composition tested was Sample 3 used above for Porphyromonas gingivalis.
Functionality was determined through a series of dilutions using the rhamnolipid mixture as a potential solubilizer component for flavor oils in the absence of synthetic or other solubilizers. The rhamnolipid composition was compared with polysorbate 20, which is a synthetic solubilizer and the industry standard for oil solubilization for flavors. Common mint flavors, such as Mint #244456 and Mint #244455 from Belle Aire Creations, were used as the flavor oils.
The rhamnolipid composition was added to each of the flavor oils in increasing amounts in order to determine the solubilizer component to flavor oil ratio at which a clear premix was obtained. Once a clear premix was obtained, that premix was then added to deionized water to ensure that the final solution was crystal clear.

Regarding polysorbate 20, the “appearance of final solution of the premix in deionized water” value is reported as “crystal clear”.
